A short description of the first series: Stability test: storage in nitrogen-filled sealed bottles, purity test by HPLC every month. Type of series: physicochemical. The note with it: Table 1, stored at −20° C., 1 month. As to the method:
I. Preparation of samples
1. The products of Examples 1 to 4, Examples 10 to 13, and the comparative example were each dispensed into 13 bottles, each of 50 mg; and the bottles were filled with nitrogen and sealed. One of the bottles (initial sample) was first tested, and the remaining 12 bottles were divided into two groups (each with 6 bottles) and stored. The bottles in each group were numbered 1 to 6 according to a test sequence. The two groups of bottles were stored at 2° C. to 8° C. and −20° C., respectively; and one sample was tested every month.
2. The products of Examples 6 to 9 and Example 14 were each dispensed into 7 bottles, each of 50 mg; and the bottles were filled with nitrogen and sealed. One of the bottles (initial sample) was first tested, and the remaining 6 bottles were numbered 1 to 6 according to a test sequence and then stored at 2° C. to 8° C. One sample was tested every month.
II. Preparation of test sample solutions
One bottle of sample was taken at a time and prepared into a 5 mL or 10 mL solution using a 5 mL or 10 mL volumetric flask, and then the solution was filtered through a membrane to be ready for purity test by HPLC.
Mobile phase: isocratic elution: 5% water (0.1% formic acid)+95% methanol (0.1% formic acid)
Temperature and humidity: 23.0° C. and 54% RH
Sample dissolution: dissolution by methanol
Chromatographic column: ODS-2, 4.6 * 250 mm, 5 μm, and constant pressure: 12 Mpa to 13 Mpa
Running time: ≥15 min IV.
For `NC(=O)c1ccc[n+]([C@@H]2O[C@H](CO)[C@@H](O)[C@H]2O)c1.O=C([O-])C[C@H](O)C(=O)O` [Example 3, malate of NR (1:1)], the “purity by HPLC, Time (month) 1” value stood at 98.691.
In the case of `NC(=O)c1ccc[n+]([C@@H]2O[C@H](CO)[C@@H](O)[C@H]2O)c1.O=C(O)C[C@H](O)C(=O)O.O=C([O-])C[C@H](O)C(=O)O` [Example 4, malate of NR (1:2)], the “purity by HPLC, Time (month) 1” value turned out to be 98.547.

Staying with this series, now noted: Table 1, stored at −20° C., 2 months.
Consider `NC(=O)c1ccc[n+]([C@@H]2O[C@H](CO)[C@@H](O)[C@H]2O)c1.O=C([O-])C[C@H](O)C(=O)O` [Example 3, malate of NR (1:1)], for which the “purity by HPLC, Time (month) 2” value turned out to be 98.310.
Same read-out and setting: the same measure for `NC(=O)c1ccc[n+]([C@@H]2O[C@H](CO)[C@@H](O)[C@H]2O)c1.O=C(O)C[C@H](O)C(=O)O.O=C([O-])C[C@H](O)C(=O)O` [Example 4, malate of NR (1:2)]: 98.629.

The same series, now with this note: Table 1, stored at −20° C., 3 months.
For `NC(=O)c1ccc[n+]([C@@H]2O[C@H](CO)[C@@H](O)[C@H]2O)c1.O=C([O-])C[C@H](O)C(=O)O` [Example 3, malate of NR (1:1)], the “purity by HPLC, Time (month) 3” value was 98.288.
Regarding `NC(=O)c1ccc[n+]([C@@H]2O[C@H](CO)[C@@H](O)[C@H]2O)c1.O=C(O)C[C@H](O)C(=O)O.O=C([O-])C[C@H](O)C(=O)O` [Example 4, malate of NR (1:2)], the “purity by HPLC, Time (month) 3” value is 98.316.

Still in this series, the particulars now being: Table 1, stored at −20° C., 4 months.
`NC(=O)c1ccc[n+]([C@@H]2O[C@H](CO)[C@@H](O)[C@H]2O)c1.O=C([O-])C[C@H](O)C(=O)O` [Example 3, malate of NR (1:1)]: the “purity by HPLC, Time (month) 4” value came out at 98.076.
Still for that read-out and setting: the value for `NC(=O)c1ccc[n+]([C@@H]2O[C@H](CO)[C@@H](O)[C@H]2O)c1.O=C(O)C[C@H](O)C(=O)O.O=C([O-])C[C@H](O)C(=O)O` [Example 4, malate of NR (1:2)] was 98.207.

Staying with this series, now noted: Table 1, stored at −20° C., 5 months.
Take `NC(=O)c1ccc[n+]([C@@H]2O[C@H](CO)[C@@H](O)[C@H]2O)c1.O=C([O-])C[C@H](O)C(=O)O` [Example 3, malate of NR (1:1)]: the “purity by HPLC, Time (month) 5” value is given as 97.912.
Consider `NC(=O)c1ccc[n+]([C@@H]2O[C@H](CO)[C@@H](O)[C@H]2O)c1.O=C(O)C[C@H](O)C(=O)O.O=C([O-])C[C@H](O)C(=O)O` [Example 4, malate of NR (1:2)], for which the “purity by HPLC, Time (month) 5” value came to 98.081.

The same series, now with this note: Table 1, stored at −20° C., 6 months.
On to `NC(=O)c1ccc[n+]([C@@H]2O[C@H](CO)[C@@H](O)[C@H]2O)c1.O=C([O-])C[C@H](O)C(=O)O` [Example 3, malate of NR (1:1)], for which the “purity by HPLC, Time (month) 6” value is reported as 97.645.
Take `NC(=O)c1ccc[n+]([C@@H]2O[C@H](CO)[C@@H](O)[C@H]2O)c1.O=C(O)C[C@H](O)C(=O)O.O=C([O-])C[C@H](O)C(=O)O` [Example 4, malate of NR (1:2)]: the “purity by HPLC, Time (month) 6” value was 98.100.

The same series, now with this note: Table 1, stored at −20° C., over 6 months.
In turn, `NC(=O)c1ccc[n+]([C@@H]2O[C@H](CO)[C@@H](O)[C@H]2O)c1.O=C([O-])C[C@H](O)C(=O)O` [Example 3, malate of NR (1:1)] displayed a Decomposition rate of 0.94%.
In turn, `NC(=O)c1ccc[n+]([C@@H]2O[C@H](CO)[C@@H](O)[C@H]2O)c1.O=C(O)C[C@H](O)C(=O)O.O=C([O-])C[C@H](O)C(=O)O` [Example 4, malate of NR (1:2)] yielded a Decomposition rate of 0.73%.

The same series, now with this note: Table 1, −20° C., initial sample (0 month).
Turning to `NC(=O)c1ccc[n+]([C@@H]2O[C@H](CO)[C@@H](O)[C@H]2O)c1.O=C([O-])C[C@H](O)C(=O)O` [Example 3, malate of NR (1:1)], the “purity by HPLC, Time (month) 0” value stood at 98.573.
Same read-out and setting: the same measure for `NC(=O)c1ccc[n+]([C@@H]2O[C@H](CO)[C@@H](O)[C@H]2O)c1.O=C(O)C[C@H](O)C(=O)O.O=C([O-])C[C@H](O)C(=O)O` [Example 4, malate of NR (1:2)]: 98.818.

Still in this series, the particulars now being: Table 2, 2° C. to 8° C., initial sample (0 month).
As to `NC(=O)c1ccc[n+]([C@@H]2O[C@H](CO)[C@@H](O)[C@H]2O)c1.O=C([O-])C[C@H](O)C(=O)O` [Example 3, malate of NR (1:1)], the “purity by HPLC, Time (month) 0” value is 98.573.
As for `NC(=O)c1ccc[n+]([C@@H]2O[C@H](CO)[C@@H](O)[C@H]2O)c1.O=C(O)C[C@H](O)C(=O)O.O=C([O-])C[C@H](O)C(=O)O` [Example 4, malate of NR (1:2)], the “purity by HPLC, Time (month) 0” value turned out to be 98.818.

Staying with this series, now noted: Table 2, stored at 2° C. to 8° C., 1 month.
`NC(=O)c1ccc[n+]([C@@H]2O[C@H](CO)[C@@H](O)[C@H]2O)c1.O=C([O-])C[C@H](O)C(=O)O` [Example 3, malate of NR (1:1)]: the “purity by HPLC, Time (month) 1” value was 98.482.
With `NC(=O)c1ccc[n+]([C@@H]2O[C@H](CO)[C@@H](O)[C@H]2O)c1.O=C(O)C[C@H](O)C(=O)O.O=C([O-])C[C@H](O)C(=O)O` [Example 4, malate of NR (1:2)], the “purity by HPLC, Time (month) 1” value is reported as 98.424.

The series is the same for the next values; noted with them: Table 2, stored at 2° C. to 8° C., 2 months.
Regarding `NC(=O)c1ccc[n+]([C@@H]2O[C@H](CO)[C@@H](O)[C@H]2O)c1.O=C([O-])C[C@H](O)C(=O)O` [Example 3, malate of NR (1:1)], the “purity by HPLC, Time (month) 2” value was 98.185.
With `NC(=O)c1ccc[n+]([C@@H]2O[C@H](CO)[C@@H](O)[C@H]2O)c1.O=C(O)C[C@H](O)C(=O)O.O=C([O-])C[C@H](O)C(=O)O` [Example 4, malate of NR (1:2)], the “purity by HPLC, Time (month) 2” value turned out to be 98.360.

Still in this series, the particulars now being: Table 2, stored at 2° C. to 8° C., 3 months.
Consider `NC(=O)c1ccc[n+]([C@@H]2O[C@H](CO)[C@@H](O)[C@H]2O)c1.O=C([O-])C[C@H](O)C(=O)O` [Example 3, malate of NR (1:1)], for which the “purity by HPLC, Time (month) 3” value was 98.270.
For `NC(=O)c1ccc[n+]([C@@H]2O[C@H](CO)[C@@H](O)[C@H]2O)c1.O=C(O)C[C@H](O)C(=O)O.O=C([O-])C[C@H](O)C(=O)O` [Example 4, malate of NR (1:2)], the “purity by HPLC, Time (month) 3” value came to 98.298.

The series is the same for the next values; noted with them: Table 2, stored at 2° C. to 8° C., 4 months.
For `NC(=O)c1ccc[n+]([C@@H]2O[C@H](CO)[C@@H](O)[C@H]2O)c1.O=C([O-])C[C@H](O)C(=O)O` [Example 3, malate of NR (1:1)], the “purity by HPLC, Time (month) 4” value worked out at 97.946.
As to `NC(=O)c1ccc[n+]([C@@H]2O[C@H](CO)[C@@H](O)[C@H]2O)c1.O=C(O)C[C@H](O)C(=O)O.O=C([O-])C[C@H](O)C(=O)O` [Example 4, malate of NR (1:2)], the “purity by HPLC, Time (month) 4” value came out at 98.239.

Staying with this series, now noted: Table 2, stored at 2° C. to 8° C., 5 months.
In the case of `NC(=O)c1ccc[n+]([C@@H]2O[C@H](CO)[C@@H](O)[C@H]2O)c1.O=C([O-])C[C@H](O)C(=O)O` [Example 3, malate of NR (1:1)], the “purity by HPLC, Time (month) 5” value turned out to be 97.592.
On the same count and under the same terms, the same measure for `NC(=O)c1ccc[n+]([C@@H]2O[C@H](CO)[C@@H](O)[C@H]2O)c1.O=C(O)C[C@H](O)C(=O)O.O=C([O-])C[C@H](O)C(=O)O` [Example 4, malate of NR (1:2)]: 97.707.

Still in this series, the particulars now being: Table 2, stored at 2° C. to 8° C., 6 months.
With `NC(=O)c1ccc[n+]([C@@H]2O[C@H](CO)[C@@H](O)[C@H]2O)c1.O=C([O-])C[C@H](O)C(=O)O` [Example 3, malate of NR (1:1)], the “purity by HPLC, Time (month) 6” value came out at 97.337.
In the case of `NC(=O)c1ccc[n+]([C@@H]2O[C@H](CO)[C@@H](O)[C@H]2O)c1.O=C(O)C[C@H](O)C(=O)O.O=C([O-])C[C@H](O)C(=O)O` [Example 4, malate of NR (1:2)], the “purity by HPLC, Time (month) 6” value amounted to 97.816.

Still in this series, the particulars now being: Table 2, stored at 2° C. to 8° C., over 6 months.
With `NC(=O)c1ccc[n+]([C@@H]2O[C@H](CO)[C@@H](O)[C@H]2O)c1.O=C([O-])C[C@H](O)C(=O)O` [Example 3, malate of NR (1:1)], the Decomposition rate is on record as 1.25%.
`NC(=O)c1ccc[n+]([C@@H]2O[C@H](CO)[C@@H](O)[C@H]2O)c1.O=C(O)C[C@H](O)C(=O)O.O=C([O-])C[C@H](O)C(=O)O` [Example 4, malate of NR (1:2)] had a Decomposition rate of 1.01%.

The same series, now with this note: in words; comparison with the corresponding 1:1 product.
Take `NC(=O)c1ccc[n+]([C@@H]2O[C@H](CO)[C@@H](O)[C@H]2O)c1.O=C(O)C[C@H](O)C(=O)O.O=C([O-])C[C@H](O)C(=O)O` [Example 4, malate of NR (1:2)]: the “stability, molar ratio (NR to organic acid) 1:2 compared with 1:1” value was “higher stability”.

The record behind these values is patent US11505570B2, “Organic acid salt of nicotinamide riboside, composition including organic acid salt, and preparation methods of organic acid salt and composition” (SHENZHEN DIECKMANN TECH CO., LTD, priority 2020, dated 2022).
